pEC50: −log10 of the molar value. Read-outs that look alike come from different tables or passages of the source.
Experiments:
platelets = settings: cited from earlier work
[1] = system: carrageenin-induced paw edema; settings: in vivo; cited from earlier work
[2] = system: right eye of male Wistar rats; experiment: Eye wiping test (pain-producing potency); type: in vivo; settings: for pain producing potency: eye drops 10^-4 to 10^-2 M, 30 min, FIG. 1
Method: The wiping test was performed as described by Szolcsanyiand, Jancso-Gabor. Briefly, the solution or suspension of the test compound and its analogs was made up in 10% ethanol, 5% Tween 80 and then diluted with saline to the required concentrations. Each solution or suspension of 10^-4 M, 10^-3 M, 10^-2 M was dropped into the right eye (vehicle being administered to the left eye as negative control) of male Wistar rats weighing 180-250 g and the total number of protective movements (scratching, wiping of the eye with the foreleg) was counted for 30 minutes. Each test was carried out with a total of 6 rats, and a dose-response curve was obtained from the mean value of each group.

Water solubility = type: physicochemical
β-receptor = β-receptor (Cavia porcellus, UniProt H0W3H1); experiment: Receptor binding assay, [3H]-dihydroalprenolol, heart ventricle membranes; settings: for IC50: FIG. 15 and Table 4
Method: Method of receptor binding assay. After punching the heads of guinea pigs, the blood was drained and the heart ventricle immediately removed. The ventricles were placed in 10 vols. of ice-cold buffer (250 mM sucrose, 1 mM Magnesium Chloride, 50 mM Tris-HCl, pH 7.5) and all subsequent procedures were carried out at 4° C. The ventricles were homogenized using a homogenizer 3-4 times. The period of each homogenization took 15 seconds. […] The supernatant was further centrifuged at 10,000 g and the final pellet was resuspended in a small volume of 75 mM Tris buffer containing 25 mM Magnesium Chloride. The membrane protein content was determined by a protein assay dye. The receptor binding assay was initiated by incubating 100 μl of, a membrane protein solution with 50 μl of [^3 H]-dihydroalprenolol(^3 H-DHA) and the competing drugs. Additional buffer was added to increase the reaction volume up to 250 μl. The binding reaction was activated at 25° C. water by constantly shaking for 60 minutes. The binding reaction was stopped by diluting it with 1 ml of ice-cold assay buffer. The solution was then filtered on a Whatman GF/C glass fiber filter paper under vacuum suction. The filters were washed 3 times with ice-cold assay buffer and dried at 60±C. in an oven for 2 hrs. Then 4 ml of scintillation fluid was added and the radioactivity was counted on β-counter.

intraocular pressure = settings: in vivo; cited from earlier work
blood vessels = settings: mouse and rat; cited from earlier work
isolated portal veins = settings: mice; cited from earlier work
in vivo = settings: mouse, mice, read-out: LD50 (95% C.L.)
β2 adrenergic receptor = biological target: T1, β2 adrenergic receptor (Rattus norvegicus, UniProt P10608); experiment: Antagonism of isoproterenolol on isolated rat uterus horns; type: cell-based
T1 construct: from tissue; host or cells: rat uterus horns (isolated organ, stilbestrol and reserpine pretreated)
Method: Female rats were intraperitonealy injected with stilbestrol (1 mg/kg) to elevate the sensitivity of β2 adrenergic receptor in uterus horns. The rats were subsequently administered reserpine to deplete the catecholamine in uterus. The isolated uterus horns were treated with phenoxybenzamine to block the neuronal uptake and the interaction between neuron cells and the adrenergic receptor.

[3] = system: platelet aggregation induced by collagen; experiment: Collagen-induced platelet aggregation in platelet rich plasma; type: cell-based; settings: 10 μg/ml collagen, PRP
Method: A monophasic aggregation curve was observed when 10 μg/ml of collagen was added to platelet rich plasma (PRP).

[4] = system: acetic acid-induced writhing syndrome; experiment: Acetic acid-induced writhing (antinociceptive test); type: in vivo, male mice (ddk strain)
Method: Following the method described by Koster antinociceptive tests were carried out in male mice after intraperitoneal administration of test solution. […] The test solution was administered by intraperitoneal injection of a single dose 0.2 ml (vehicle administered as control). Twenty minutes after injection, 0.2 ml of 0.7% acetic acid was injected intraperitoneally to induce writhing.

β1 adrenergic receptor [5] = experiment: Antagonism of isoproterenolol on isolated guinea pig right atrium; type: cell-based
Text: (§1) A bath as described in Gen.
(§2) The determination of the pA2 is made from experiments in which a fixed concentration of the antagonist is used along with graded concentrations of an agonist acting on the same receptor. The presence of the antagonist shifts the agonist dose-response curve to the right.

β1 adrenergic receptor [6] = biological target: T2, β1 adrenergic receptor (Cavia porcellus, UniProt H0W3H1); experiment: as above; type: cell-based
T2 construct: isolated guinea pig right atrium; from tissue; host or cells: guinea pig right atrium (isolated organ)
Text: as §1, §2

[7] = system: heart rate and blood pressure; experiment: Heart rate and blood pressure of anesthetized rats (i.v.); type: in vivo
Text: […]. The effect of DZN on heart rate and blood pressure were monitored.
[…]. Exp. Ther., vol. 96, 99-113). The ID50 value is the response of a β drug which produces a response in 50% of […].

T1 sequence (P10608 whole entry): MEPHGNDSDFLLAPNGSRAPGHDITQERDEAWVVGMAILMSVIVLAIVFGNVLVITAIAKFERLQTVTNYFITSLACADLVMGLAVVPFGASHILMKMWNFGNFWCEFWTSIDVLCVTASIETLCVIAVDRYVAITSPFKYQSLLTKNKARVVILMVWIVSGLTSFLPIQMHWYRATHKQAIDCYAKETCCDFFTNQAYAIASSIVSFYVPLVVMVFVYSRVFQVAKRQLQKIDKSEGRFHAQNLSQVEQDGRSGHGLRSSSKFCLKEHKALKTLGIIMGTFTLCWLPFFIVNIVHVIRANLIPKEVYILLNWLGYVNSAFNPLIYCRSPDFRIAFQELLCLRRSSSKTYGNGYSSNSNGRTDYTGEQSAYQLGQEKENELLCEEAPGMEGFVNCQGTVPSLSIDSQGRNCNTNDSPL
β-receptor, sequence (H0W3H1 1-470): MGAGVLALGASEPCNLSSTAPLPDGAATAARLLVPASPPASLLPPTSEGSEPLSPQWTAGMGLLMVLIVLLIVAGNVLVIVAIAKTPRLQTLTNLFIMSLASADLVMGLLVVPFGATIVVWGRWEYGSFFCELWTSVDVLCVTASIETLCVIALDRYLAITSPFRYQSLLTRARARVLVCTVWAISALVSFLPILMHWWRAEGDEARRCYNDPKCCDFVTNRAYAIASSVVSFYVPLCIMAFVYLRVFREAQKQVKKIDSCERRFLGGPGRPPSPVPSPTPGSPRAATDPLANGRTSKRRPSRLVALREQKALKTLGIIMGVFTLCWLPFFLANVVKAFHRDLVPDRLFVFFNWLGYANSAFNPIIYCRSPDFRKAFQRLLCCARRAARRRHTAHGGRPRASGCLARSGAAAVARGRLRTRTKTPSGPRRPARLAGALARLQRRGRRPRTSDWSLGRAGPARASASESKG
T2 sequence (H0W3H1 1-470): as above

CCCCC/C=C/C(=O)CCc1ccc(O)c(OC)c1 [Shogaol]
platelet aggregation (platelets): inhibitory activity | carrageenin-induced paw edema [1]: inhibitory activity

COc1cc(C=CC(C)=O)ccc1OCC(O)CNC(C)(C)C (racemic) [DZBN, 4-[4'-(2-hydroxy-3-tert-butylaminopropoxy)-3'-methoxyphenyl]-3-buten-2-one]
pain producing potency [2]: lower than that of DZ and zingerone | pungency ([2]; rat, in vivo): lower pungency | water solubility (Water solubility): watersoluble | pEC50 (β-receptor): 5.44 | IC50 (β-receptor): close to the IC50 values of the well known β-adrenergic agonist Atenolol

COc1cc(C=CC(C)=O)ccc1OCC(O)CNC(C)(C)C (centres unmarked) [Vaninolol]
intraocular pressure (IOP) (intraocular pressure): lower the intraocular pressure (IOP)

CCCCC[C@H](O)CC(=O)CCc1ccc(O)c(OC)c1 [Gingerol]
eicosanoid-induced contraction of blood vessels (blood vessels): modulates the eicosanoid-induced contraction of mouse and rat blood vessels | contraction of isolated portal veins (isolated portal veins): suppresses the contraction of isolated portal veins in mice

COc1cc(C=CC(C)=O)ccc1OCC(O)CNC(C)C (racemic) [DZN, 4-[4'-(2-hydroxy-3-isopropylaminopropoxy)-3'-methoxyphenyl]-3-buten-2-one]
LD50 (in vivo; ip): > 1000 mg/kg | LD50 (in vivo; po): > 1000 mg/kg | pain producing potency [2]: lower than that of DZ and zingerone | shift of isoproterenolol concentration-effect curve (β2 adrenergic receptor; 10^-8 -10^-6 M DZN, rat uterus horns): partially shift to the right | slope of regression (Schild plot), β2 (β2 adrenergic receptor; rat uterus): 0.99±0.11 | Kb (β2 adrenergic receptor; read-out: pA2, β2 (converted)): 0.0295 µM | inhibition of collagen-induced platelet aggregation [3]: dose-dependent inhibition of platelet aggregation | IC100 ([3]; Platelet, FIG. 18, read-out: concentration completely inhibiting platelet aggregation): 250 µM | Protection ([4]; 1.25 mg/kg i.p., N = 8): 86.06% | Writhes No. (Ave. ± S.E.) ([4]; 1.25 mg/kg i.p., N = 8): 11.17 ± 2.36 | ED50 ([4]; Mus musculus, ip, mice, Litchfield and Wilcoxon method, read-out: ED50 (95% C.I.)): 0.11 mg/kg | Potency ratio ([4]; relative to DZ = 1.00): 3.50 | pEC50 (β-receptor): 5.89 | IC50 (β-receptor): close to the IC50 values of the well known β-adrenergic agonist Atenolol | Cardioselectivity ratio (β1 adrenergic receptor [5]): 4.26 | shift of isoproterenolol concentration-effect curve (β1 adrenergic receptor [6]; guinea pig right atrium): partially shifted to the right | slope of regression (Schild plot), β1 (β1 adrenergic receptor [6]; guinea-pig right atrium): 0.96 ± 0.05 | Kb (β1 adrenergic receptor [6]; read-out: pA2, β1 (converted)): 0.00692 µM | ED50 ([7]; Rattus norvegicus, iv, anesthetized rats, Litchfield method, read-out: ID50 : heart rate response (95% C.I.)): 0.22 mg/kg | duration of bradycardia ([7]; i.v. 0.1, 0.5, 1.0 mg/kg): over 1 hr | bradycardia ([7]; i.v. 0.1, 0.5, 1.0 mg/kg, FIGS. 3-6): dose-dependent bradycardia | ID50 : heart rate response (95% C.I.) ([7]; i.v., anesthetized rats, Litchfield method, listed as DZH (compound 4)): 0.22 (1.29-0.04) mg/kg | time of slightly reduced blood pressure after injection ([7]; i.v., statistical significance not found): 5 to 10 min | effect on blood pressure induced by isoproterenolol ([7]; rat, in vivo): lowered the blood pressure induced by isoproterenolol | effect on resting heart rate ([7]; rat, in vivo): reduced resting heart rate
